Assay: logP determination by HPLC on reversed-phase column (C 18), EEC Directive 79/831 Annex V.A8
Assay type: physicochemical
Conditions: reversed-phase C 18, 43° C., acid range (0.1% aqueous phosphoric acid, acetonitrile), marked a)
Protocol: a) The logP values given in table 1 were determined in accordance with EEC Directive 79/831 Annex V.A8 by HPLC (High Performance Liquid Chromatography) on a reversed-phase column (C 18). Temperature: 43° C. (a) Mobile phases for the determination in the acid range: 0.1% aqueous phosphoric acid, acetonitrile; linear gradient from 10% acetonitrile to 90% acetonitrile—corresponding measurement results are marked a) in table 1. Calibration was carried out using unbranched alkan-2-ones (having 3 to 16 carbon atoms) with known logP values (determination of the logP values by the retention times using linear interpolation between two successive alkanones).

Row | logP | Structure (SMILES)
1 | logP = 4.75^a) | Cc1ccc(-c2ccc(Cl)cc2)cc1C1=C(O)C(=O)N(C(C)c2ccccc2Cl)C1=O (racemic) [Example 136]
2 | logP = 4.94^a) | Cc1ccc(-c2ccc(Cl)cc2)cc1C1=C(O)C(=O)N(C(C)c2ccc(Cl)cc2)C1=O (centres unmarked) [Example 120]
3 | logP = 3.14^a) | O=C1C(O)=C(c2ccccc2Cl)C(=O)N1c1ncc(C(F)(F)F)s1 [Example 164]
4 | logP = 4.03^a) | O=C1C(O)=C(c2ccc(C(F)(F)F)cc2)C(=O)N1Cc1ccc(OC(F)(F)F)cc1 [Example 89]
5 | logP = 4.80^a) | Cc1ccc(-c2ccc(Cl)cc2)cc1C1=C(O)C(=O)N(C(C)(C)c2ccccc2Cl)C1=O [Example 142]
6 | logP = 5.01^a) | CC1CCCC(C#N)(N2C(=O)C(OC(=O)C(C)(C)C)=C(c3ccccc3Cl)C2=O)C1 (centres unmarked) [Example 171]
7 | logP = 3.94^a) | O=C1C(O)=C(c2ccc(Cl)cc2)C(=O)N1c1cc(Cl)cc(Cl)c1 [Example 78]
8 | logP = 2.76^a) | O=C1C(O)=C(c2ccccc2F)C(=O)N1c1ccc(Cl)cc1 [Example 59]
9 | logP = 3.80^a) | O=C1C(O)=C(c2ccc(OC(F)(F)F)cc2)C(=O)N1c1ccc(Cl)cc1 [Example 62]
10 | logP = 2.61^a) | CCOc1cccc(F)c1CN1C(=O)C(O)=C(c2ccc(C#N)cc2)C1=O [Example 172]
11 | logp = 4.18^a) | O=C1C(O)=C(c2ccc(C(F)(F)F)cc2)C(=O)N1Cc1cc(Cl)cc(Cl)c1 [Example 116]
12 | logP = 4.67^a) | O=C1C(O)=C(c2ccc(OC(F)(F)F)cc2)C(=O)N1Cc1cc(Cl)cc(Cl)c1 [Example 113]
13 | logP = 2.89^a) | O=C1C(O)=C(c2ccccc2Cl)C(=O)N1c1ccc(Cl)cc1 [Example 60]
14 | logP = 3.85^a) | Cc1ccc(-c2ccc(Cl)cc2)cc1C1=C(O)C(=O)N(c2c(F)cccc2F)C1=O [Example 124]
15 | logP = 1.82^a) | CCOc1ccc(N2C(=O)C(O)=C(c3ccccc3Cl)C2=O)nn1 [Example 29]
16 | logP = 4.13^a) | CCOc1cccc(F)c1CN1C(=O)C(O)=C(c2ccc(OC(F)(F)F)cc2)C1=O [Example 182]
17 | logP = 4.09^a) | CCCCOC1CCCC(N2C(=O)C(O)=C(c3ccccc3Cl)C2=O)C1 (centres unmarked) [Example 153]
18 | logP = 3.01^a) | CCOC(=O)C1CCCC(N2C(=O)C(O)=C(c3ccccc3Cl)C2=O)C1 (centres unmarked) [Example 150]
19 | logP = 3.10^a) | COC(=O)C1(N2C(=O)C(O)=C(c3ccccc3Cl)C2=O)CCCCC1 [Example 165]
20 | logP = 4.87^a) | CCOC(=O)C1CCCCC1N1C(=O)C(O)=C(c2c(C)cc(-c3ccc(Cl)cc3)cc2C)C1=O (centres unmarked) [Example 174]
21 | logP = 3.06^a) | O=C1C(O)=C(c2ccc(C(F)(F)F)cc2)C(=O)N1CCC(F)(F)F [Example 47]
22 | logP = 3.95^a) | CCOC(=O)CCN1C(=O)C(O)=C(c2cccc(OC(F)(F)F)c2)C1=O [Example 178]
23 | logP = 4.24^a) | Cc1cc(C)c(C2=C(O)C(=O)N(Cc3ccc(OC(F)(F)F)cc3)C2=O)c(C)c1 [Example 81]
24 | logP = 3.56^a) | O=C1C(O)=C(c2ccccc2Cl)C(=O)N1Cc1ccc(OC(F)(F)F)cc1 [Example 84]
25 | logP = 2.80^a) | CCOC(=O)CCN1C(=O)C(O)=C(c2cc(Cl)cc(Cl)c2)C1=O [Example 179]

Row | logP | Structure (SMILES)
26 | logP = 2.80^a) | N#Cc1ccc(C2=C(O)C(=O)N(c3ccc(C(F)(F)F)cc3)C2=O)cc1 [Example 69]
27 | logP = 4.27^a) | O=C1C(O)=C(c2ccc(Cl)cc2)C(=O)N1Cc1ccc(OC(F)(F)F)cc1 [Example 88]
28 | logP = 4.21^a) | O=C1C(O)=C(c2cc(Cl)cc(Cl)c2)C(=O)N1Cc1cc(Cl)cc(Cl)c1 [Example 118]
29 | logP = 4.75^a) | Cc1ccc(-c2ccc(Cl)cc2)cc1C1=C(O)C(=O)N(Cc2ccccc2OC(F)(F)F)C1=O [Example 133]
30 | logP = 2.70^a) | O=C1C(O)=C(c2cccc(C(F)(F)F)c2)C(=O)N1CC(F)(F)F [Example 38]
31 | logP = 6.09^a) | N#Cc1ccc(C2=C(O)C(=O)N(c3ccc(C(F)(F)F)cc3F)C2=O)cc1 [Example 144]
32 | logP = 2.67^a) | O=C1C(O)=C(c2cc(Cl)cc(Cl)c2)C(=O)N1CC(F)(F)F [Example 43]
33 | logP = 4.15^a) | O=C1C(O)=C(c2ccc(OC(F)(F)F)cc2)C(=O)N1c1cc(Cl)cc(Cl)c1 [Example 76]
34 | logP = 2.82^a) | O=C1C(O)=C(c2cccc(OC(F)(F)F)c2)C(=O)N1CC(F)(F)F [Example 42]
35 | logP = 3.59^a) | O=C1C(O)=C(c2cccc(C(F)(F)F)c2)C(=O)N1c1ccc(C(F)(F)F)cc1 [Example 68]
36 | logP = 3.94^a) | O=C1C(O)=C(c2cccc(OC(F)(F)F)c2)C(=O)N1c1cc(Cl)cc(Cl)c1 [Example 80]
37 | logP = 3.01^a) | O=C1C(O)=C(c2ccccc2F)C(=O)N1c1ccc(C(F)(F)F)cc1 [Example 67]
38 | logP = 3.48^a) | COC(=O)C1(N2C(=O)C(O)=C(c3ccccc3Cl)C2=O)CCCC(C)C1 (centres unmarked) [Example 166]
39 | logP = 3.61^a) | CC1CCCC(N2C(=O)C(O)=C(c3ccccc3Br)C2=O)C1 (centres unmarked) [Example 163]
40 | logP = 2.21^a) | CCOC(=O)CCN1C(=O)C(O)=C(c2ccccc2Cl)C1=O [Example 177]
41 | logP = 4.03^a) | Cc1ccc(-c2ccc(Cl)cc2)cc1C1=C(O)C(=O)N(c2ccccc2Cl)C1=O [Example 129]
42 | logP = 4.18^a) | Cc1ccc(-c2ccc(Cl)cc2)cc1C1=C(O)C(=O)N(c2c(Cl)cccc2Cl)C1=O [Example 135]
43 | logP = 4.51^a) | Cc1ccc(-c2ccc(Cl)cc2)cc1C1=C(O)C(=O)N(c2cc(F)ccc2F)C1=O [Example 146]
44 | logP = 2.94^a) | O=C1C(O)=C(c2cc(Cl)cc(Cl)c2)C(=O)N1CCC(F)(F)F [Example 49]
45 | logP = 3.40^a) | O=C1C(O)=C(c2ccc(C(F)(F)F)cc2)C(=O)N1Cc1ccccc1F [Example 100]
46 | logP = 2.80^a) | O=C1C(O)=C(c2c(F)cccc2F)C(=O)N1c1ccc(OC(F)(F)F)cc1 [Example 50]
47 | logP = 2.70^a) | N#Cc1ccc(C2=C(O)C(=O)N(c3ccc(OC(F)(F)F)cc3)C2=O)cc1 [Example 54]
48 | logP = 3.51^a) | Cc1ccc(C2=C(O)C(=O)N(Cc3ccccc3F)C2=O)cc1 [Example 103]
49 | logP = 4.48^a) | O=C1C(O)=C(c2ccc(OC(F)(F)F)cc2)C(=O)N1Cc1ccc(OC(F)(F)F)cc1 [Example 86]
50 | logP = 3.81^a) | CCOc1cccc(F)c1CN1C(=O)C(O)=C(c2ccc(C(F)(F)F)cc2)C1=O [Example 184]

Row | logP | Structure (SMILES)
51 | logP = 4.84^a) | Cc1ccc(-c2ccc(Cl)cc2)cc1C1=C(O)C(=O)N(Cc2cc(Cl)ccc2Cl)C1=O [Example 139]
52 | logP = 4.70^a) | Cc1ccc(-c2ccc(Cl)cc2)cc1C1=C(O)C(=O)N(Cc2c(Cl)cccc2Cl)C1=O [Example 140]
53 | logP = 4.18^a) | CC1CC(N2C(=O)C(O)=C(c3ccccc3Cl)C2=O)CC(C)(C)C1 (centres unmarked) [Example 159]
54 | logP = 2.60^a) | O=C1C(O)=C(c2ccccc2Cl)C(=O)N1c1ccccc1C(F)(F)F [Example 25]
55 | logP = 2.76^a) | CCOC(=O)C1(N2C(=O)C(O)=C(c3ccccc3Cl)C2=O)CCC(OC)CC1 (single isomer, unassigned) [Example 149]
56 | logP = 3.75^a) | O=C1C(O)=C(c2cccc(OC(F)(F)F)c2)C(=O)N1c1ccc(C(F)(F)F)cc1 [Example 71]
57 | logP = 2.45^a) | O=C1C(O)=C(c2c(F)cccc2F)C(=O)N1c1ccc(Cl)cc1 [Example 58]
58 | logP = 3.06^a) | CC1CCCC(C#N)(N2C(=O)C(O)=C(c3ccccc3Cl)C2=O)C1 (centres unmarked) [Example 158]
59 | logP = 4.61^a) | Cc1ccc(-c2ccc(Cl)cc2)cc1C1=C(O)C(=O)N(Cc2cccc(Cl)c2)C1=O [Example 123]
60 | logP = 3.78^a) | O=C1C(O)=C(c2cccc(C(F)(F)F)c2)C(=O)N1c1cc(Cl)cc(Cl)c1 [Example 75]
61 | logP = 3.45^a) | O=C1C(O)=C(c2cccc(C(F)(F)F)c2)C(=O)N1c1ccc(Cl)cc1 [Example 61]
62 | logP = 4.94^a) | Cc1ccc(-c2ccc(Cl)cc2)cc1C1=C(O)C(=O)N(c2ccccc2F)C1=O [Example 145]
63 | logP = 3.42^a) | O=C1C(O)=C(c2cc(Cl)cc(Cl)c2)C(=O)N1c1ccc(C(F)(F)F)cc1 [Example 72]
64 | logP = 3.10^a) | O=C1C(O)=C(c2ccccc2Cl)C(=O)N1c1ccc(C(F)(F)F)cc1 [Example 27]
65 | logP = 3.48^a) | O=C1C(O)=C(c2cc(Cl)cc(Cl)c2)C(=O)N1Cc1ccccc1F [Example 102]
66 | logP = 3.13^a) | O=C1C(O)=C(c2ccccc2F)C(=O)N1c1ccc(OC(F)(F)F)cc1 [Example 51]
67 | logP = 3.48^a) | Cc1cc(C)c(C2=C(O)C(=O)N(Cc3c(F)cccc3F)C2=O)c(C)c1 [Example 104]
68 | logP = 2.82^a) | O=C1C(O)=C(c2ccc(Cl)cc2)C(=O)N1CC(F)(F)F [Example 41]
69 | logP = 4.37^a) | CC(C)(C)C(=O)OC1=C(c2ccccc2Cl)C(=O)N(c2ccccc2)C1=O [Example 28]
70 | logP = 3.83^a) | O=C1C(O)=C(c2ccc(Cl)cc2)C(=O)N1c1ccc(OC(F)(F)F)cc1 [Example 55]
71 | logP = 3.70^a) | CCCCOC1CCCC(N2C(=O)C(O)=C(c3ccccc3Cl)C2=O)C1 (centres unmarked) [Example 152]
72 | logP = 3.85^a) | CCOc1cccc(F)c1CN1C(=O)C(O)=C(c2ccc(Cl)cc2)C1=O [Example 183]
73 | logP = 2.14^a) | O=C1C(O)=C(c2c(F)cccc2F)C(=O)N1CCC(F)(F)F [Example 44]
74 | logP = 5.03^a) | Cc1ccc(-c2ccc(Cl)cc2)cc1C1=C(O)C(=O)N(Cc2ccc(Cl)cc2Cl)C1=O [Example 121]
